Measured values as given in paper PMC6407578, “Synthesis and biological evaluation of ursolic acid derivatives bearing triazole moieties as potential anti-Toxoplasma gondii agents” (Journal of Enzyme Inhibition and Medicinal Chemistry, 2019).
Read-outs that look alike come from different tables or passages of the source.

Tests used:
[1] = tested on: HeLa cells; test: Cytotoxicity on HeLa host cells (MTT); assay type: cell-based; settings: median toxicity dose, cytotoxicity against host cells, 24 h
Method: (§1) The cytotoxicity of compounds was determined using the previously published thiazolyl blue-based colorimetric method. For this, HeLa cells were used as host cells and their ability to resist invasion by T. gondii RH strain tachyzoites in vitro was checked. The cells were plated in 96-well plates at an appropriate density to ensure exponential growth throughout the experimental period (3 × 10^3 cells per well) and then allowed to adhere for 24 h at 37 °C. The cells were infected with T. gondii (1.5 × 10^4 tachyzoites/well), followed by incubation for 24 h. All compounds were prepared in dimethyl sulfoxide (DMSO) at a stock concentration of 100 mM. Serial dilutions (1–1000 μM) of each compound were tested. Spiramycin was used as a positive control. After 24 h of incubation, 10 μL of MTT solution were added to each well and cells were incubated for a further 2 h. The optical density (OD) was read on a microplate reader at a wavelength of 492 nm. The IC50 in HeLa cells, IC50 in T. gondii and selectivity index were calculated using Microsoft Excel.

[2] = tested on: T. gondii RH strain tachyzoites; test: In vitro T. gondii growth inhibition in HeLa host cells (MTT); assay type: cell-based, Toxoplasma gondii; settings: for SI (selectivity index): IC50 in HeLa cells/IC50 in T. gondii; for IC50: median inhibitory concentration, tachyzoite inhibition, HeLa host cells, 24 h
Method: as §1

[3] = tested on: T. gondii tachyzoites; test: In vivo anti-T. gondii activity, acute infection model in KM mice (intraperitoneal tachyzoite count); set-up: species or system Toxoplasma gondii; settings: T. gondii-infected KM mice, 100 mg/kg by gavage once a day for 4 days; for inhibitory rate of tachyzoites: ascitic fluid; for Amount of tachyzoite: intraperitoneal tachyzoites
Method: (§2) Thirty female KM mice were used to establish an animal model of acute T. gondii infection. These were randomly divided into five groups: infected untreated, normal, infected with spiramycin treatment, infected with 1e treatment and infected with 3d treatment. Each group consisted of six mice. Four hours after infection, 100 mg/kg of the compounds was administered to the mice by gavage, once a day for 4 consecutive days, whereas the untreated group was administered the same dose of physiological saline. On the fifth day, blood from the eyes of mice was collected and they were sacrificed by cervical dislocation. Their abdominal cavity was rinsed with sterile physiological saline to collect the parasites/tachyzoites. These were counted under the light microscope, and the inhibition rate of parasites was calculated. The liver and spleen were dissected and liver and spleen indexes, serum alanine aminotransferase (ALT), aspartate aminotransferase (AST), and liver homogenate glutathione (GSH) and malonaldehyde (MDA) were determined.

[4] = Liver/spleen indexes, serum ALT/AST, liver MDA/GSH in T. gondii-infected KM mice; assay type: in vivo; settings: 100 mg/kg; for GSH content (liver homogenate): compared to the untreated group; for spleen index: effect on the infection-induced increase, not statistically significant
Method: as §2

[5] = tested on: T. gondii; set-up: method as in PMID 25288090; settings: cited from earlier work
[6] = T. gondii-infected KM mice, compared with the untreated group

Molecule	IC50 ([1]; Homo sapiens, HeLa) [µM]	SI (selectivity index) [2]	IC50 ([2]; Toxoplasma gondii) [µM]	inhibitory rate of tachyzoites [3] [%]	Amount of tachyzoite [3]	GSH content (liver homogenate) ([4]; T. gondii-infected KM mice)	levels of MDA (liver homogenate) [4, 6]	serum ALT and AST levels [4, 6]	spleen index ([4]; T. gondii-infected KM mice)	serum ALT and AST levels ([4]; mouse, in vivo)	selectivity value ([5]; 3[H]uracil incorporation method)	selectivity value ([5]; qRT-PCR)	IC50 [1] [µM]	IC50 [2] [µM]	melting point [°C]
C[C@H]1[C@H](C)CC[C@]2(C(=O)OCCn3cnnc3-c3ccc([N+](=O)[O-])cc3)CC[C@]3(C)C(=CC[C@@H]4[C@@]5(C)CCC(O)C(C)(C)[C@@H]5CC[C@]43C)[C@H]12 (stereo partly drawn) [3d, 2 –(3-(4-nitrophenyl)-4H-1,2,4-triazol-4-yl)ethyl(1S,2R,4aS,6aS,6bR,8aR,12aR,12bR,14bS)-10-hydroxy-1,2,6a,6b,9,9,12a-heptamethyl-1,3,4,5,6,6a,6b,7,8,8a,9,10,11,12,12a,12b,13,14b-octadecahydropicene-4a(2H)-carboxylate]	227	1.77	128	70.4	66.6 ×10^4	significantly increase	significantly decreased	striking reduction	subjugated	–	–	–	–	–	–
C[C@H]1[C@H](C)CC[C@]2(C(=O)O)CC[C@]3(C)C(=CC[C@@H]4[C@@]5(C)CC[C@H](O)C(C)(C)[C@@H]5CC[C@]43C)[C@H]12 [Ursolic Acid, Ursolic acid]	44.8	0.62	72.2	65.4	77.9 ×10^4	–	significantly decreased	–	subjugated	striking reduction	–	–	–	–	–
S=C1N=NC(c2cccs2)=N1 [compound 2, 3-(thiophen-2-yl)-1,2,4-triazole-5-thione]	–	–	–	–	–	–	–	–	–	–	4.58	5.21	–	–	–
C[C@H]1[C@H](C)CC[C@]2(C(=O)O)CC[C@]3(C)C(=CC[C@@H]4[C@@]5(C)C/C(=C\c6cn(-c7ccccc7Cl)nn6)C(=O)C(C)(C)[C@@H]5CC[C@]43C)[C@H]12 [1e, (1S,2R,4aS,6aS,6bR,8aR,12aR,12bR,14bS,E)-11-((1–(2-chlorophenyl)-1H-1,2,3-triazol-4-yl)methylene)-1,2,6a,6b,9,9,12a-heptamethyl-10-oxo-1,3,4,5,6,6a,6b,7,8,8a,9,10,11,12,12a,12b,13,14b-octadecahydropicene-4a(2H)-carboxylic acid]	466	1.95	240	37.0	141.8 ×10^4	significantly increase	–	striking reduction	–	–	–	–	–	–	–
Spiramycin [reference compound]	–	0.72	–	56.8	97.2 ×10^4	–	significantly decreased	–	subjugated	–	–	–	189	262	–
C[C@H]1[C@H](C)CC[C@]2(C(=O)OCC(=O)NCc3cn(-c4ccc(Cl)c(Cl)c4)nn3)CC[C@]3(C)C(=CC[C@@H]4[C@@]5(C)CCC(O)C(C)(C)[C@@H]5CC[C@]43C)[C@H]12 (stereo partly drawn) [2e, (1S,2R,4aS,6aS,6bR,8aR,12aR,12bR,14bS)-2-((1–(3,4-dichlorophenyl)-1H-1,2,3-triazol-4-yl)methylamino)-2-oxoethyl-10-hydroxy-1,2,6a,6b,9,9,12a-heptamethyl-1,2,3,4,4a,5,6,6a,6b,7,8,8a,9,10,11,12,12a,12b,13,14b-icosahydropicene-4a-carboxylate]	> 1000	–	> 1000	–	–	–	–	–	–	–	–	–	–	–	203 to 204
